Experimental data taken from patent EP0293294A2, “Imidazo[1,2-a]pyrimidines and their salts, process and intermediates for their preparation, their use as medicaments and compositions containing them” (ROUSSEL-UCLAF, priority 1987, dated 1988).

target: récepteurs des benzodiazépines; test: Benzodiazepine receptor binding, [³H] flunitrazépam displacement (modified Squires and Braestrup method); design: species or system rats; settings: concentration inhibiting by 50% the specific binding of 0,6 nanomoles of [³H] flunitrazépam; rat forebrain membrane preparations; read-out: Liaison aux récepteurs CI50
From the text: L'affinité des composés pour les récepteurs des benzodiazépines a été évaluée en utilisant un radioligang [³H] flunitrazépam et la méthode de Squires et Braestrup (Nature, 1977, 266, 732) modifiée.
Les valeurs indiquées dans le tableau II ci-après sont les concentrations nanomolaires du produit testé qui inhibent dans une proportion de 50% la liaison spécifique de 0,6 nanomoles de [³H] flunitrazépam dans des préparations de membranes de cerveaux antérieurs de rats [(CI₅₀)en nanomoles].

IC50 [nM] | Compound
1000 | COc1nc2nc(C(=O)[C@@H]3C[C@H]3C#N)cn2c2c1CCCC2 (relative stereo) [Exemple 11, trans 2-(6,7,8,9-tétrahydro 5-méthoxyimidazo [1,2-a]quinazolin-2-oyl) cyclopropane carbonitrile]
180 | COc1nc2nc(C(=O)[C@@H]3C[C@H]3Cl)cn2c2c1CCCC2 (relative stereo) [Exemple 6, trans (6,7,8,9-tétrahydro 5-méthoxyimidazo [1,2 a]quinazolin--yl) 2-chlorocyclopropyl méthanone]
560 | CCOC(=O)[C@@H]1C[C@H]1C(=O)c1cn2c(C)c(CC)c(OC)nc2n1 (relative stereo) [Exemple 1, trans 2-(6-éthyl 7-méthoxy 5-méthylimidazo [1,2-a]pyrimidin-2-oyl) cyclopropane carboxylate d'éthyle]
6300 | COc1nc2nc(C(=O)C3(C)CC3)cn2c2c1CCCC2 [Exemple 4, (6,7,8,9-tétrahydro 5-méthoxyimidazo [1,2-a]quinazolin-2-yl) 1-méthyl cyclopropyl méthanone]
1780 | CCc1c(OC)nc2nc(C(=O)[C@@H]3C[C@H]3C)cn2c1C (relative stereo) [Exemple 5, trans (6-éthyl 7-méthoxy 5-méthylimidazo [1,2-a]pyrimidin-2-yl) 2-méthyl cyclopropyl méthanone]
